In this test the target is T1, human M1 receptor (Homo sapiens, UniProt P11229).
T1 sequence (P11229 1-460): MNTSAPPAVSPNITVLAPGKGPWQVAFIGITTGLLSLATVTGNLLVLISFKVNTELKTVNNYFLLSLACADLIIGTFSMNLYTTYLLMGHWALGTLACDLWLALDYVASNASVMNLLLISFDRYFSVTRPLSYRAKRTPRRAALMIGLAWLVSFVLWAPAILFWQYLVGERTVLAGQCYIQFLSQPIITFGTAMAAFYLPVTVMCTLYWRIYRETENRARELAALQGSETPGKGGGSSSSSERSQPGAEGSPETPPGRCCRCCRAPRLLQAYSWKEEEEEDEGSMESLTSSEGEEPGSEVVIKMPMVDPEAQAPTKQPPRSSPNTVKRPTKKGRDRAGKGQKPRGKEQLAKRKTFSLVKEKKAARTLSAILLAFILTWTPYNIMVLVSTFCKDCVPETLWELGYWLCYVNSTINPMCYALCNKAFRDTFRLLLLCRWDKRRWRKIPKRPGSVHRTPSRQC
Kind of test: In vitro functional assay of muscarinic acetylcholine receptor activity (aequorin calcium flux, reversal of EC80 acetylcholine response). The format is cell-based. Conditions: CHO-K1 cells stably expressing human M1 receptor with aequorin; acetylcholine at EC80; calcium flux (luminescence); read-out: M1 IC50. On the procedure:
CHO-K1 cells stably expressing human M1 receptor with aequorin (Perkin Elmer) were grown in F12 media (Gibco) containing 10% FBS (ATCC), 0.4 mg/mL geneticin (Sigma-Aldrich) and 0.25 mg/mL Zeocin (Invitrogen). Cells were grown as per the manufacturer's protocol. For compound testing, cells were grown to confluency and detached gently with Accutase (Sigma-Aldrich) followed by centrifugation for 5 min at 150× g. Cells were then re-suspended in assay buffer (i.e. DMEM/F-12 HEPES without phenol red (Invitrogen) with 0.1% BSA (Sigma-Aldrich)) at a density of 5×10^6 cells/ml. Under sterile conditions, 5 μM coelenterazine (Invitrogen) was added to the cells, mixed, then incubated at room temperature protected from light, with gentle agitation, for 4 h.
Primary compound plates were prepared in 100% DMSO in opaque 96-well plates (VWR) and serially diluted in half log increments. Secondary compound plates were prepared at 3× concentration in assay buffer. Compounds were added to white, clear bottom tissue culture treated 96-well plates (Fisher Scientific). Coelenterazine-loaded cells were then added at 5×10^5 cells/well.
Compounds and cells were incubated at room temperature for 30 min in the dark. Acetylcholine at the EC80 concentration was added and calcium flux measured using a FlexStation 3 (Molecular Devices). Sigmoidal dose-response curves were generated by measuring luminescence over 40 sec and calculating the area under the curve. Dose response curves and IC50 values were generated using Prism (GraphPad). Compounds were tested at a final concentration range of 100 μM to […] in 0.1% DMSO.
A general note: Calcium flux is commonly read through the fluorescence of an indicator in the cells.

SMILES strings stand for the structures.

In general, IC50 refers to the concentration that inhibits the measured activity by half. In the case of `N#Cc1ccc(N2C3CCC2CN(C(=O)COC2CCc4ccc(F)cc42)C3)nc1` (racemic) [Example 183, 6-(3-(2-((6-fluoro-2,3-dihydro-1H-inden-1-yl)oxy)acetyl)-3,8-diazabicyclo[3.2.1]octan-8-yl)nicotinonitrile], the IC50 lay in the range of 10 to 100 nM.
Take `N#Cc1ccc(N2C3CCC2CN(C(=O)COC2CCc4cc(F)ccc42)C3)nc1` (racemic) [Example 184, 6-(3-(2-((5-fluoro-2,3-dihydro-1H-inden-1-yl)oxy)acetyl)-3,8-diazabicyclo[3.2.1]octan-8-yl)nicotinonitrile]: the IC50 fell in the range of 10 to 100 nM.
Turning to `CC(OCC(=O)N1CC2CCC(C1)N2c1ccc(C#N)cn1)c1ccc(C(F)(F)F)nc1` (racemic) [Example 190, 6-(3-(2-(1-(6-(trifluoromethyl)pyridin-3-yl)ethoxy)acetyl)-3,8-diazabicyclo[3.2.1]octan-8-yl)nicotinonitrile], the IC50 was more than 1000 nM.
Turning to `CC(OCC(=O)N1CC2CCC(C1)N2c1ccc(C#N)cn1)c1cccc2ncnn12` (racemic) [Example 191, 6-(3-(2-(1-([1,2,4]triazolo[1,5-a]pyridin-5-yl)ethoxy)acetyl)-3,8-diazabicyclo[3.2.1]octan-8-yl)nicotinonitrile], the IC50 lay in the range of 10 to 100 nM.
As for `CC(OCC(=O)N1CC2CCC(C1)N2c1ccc(C#N)cn1)c1cccc2ncccc12` (racemic) [Example 192, 6-(3-(2-(1-(quinolin-5-yl)ethoxy)acetyl)-3,8-diazabicyclo[3.2.1]octan-8-yl)nicotinonitrile], the figure is less than 10 nM; as for `CC(OCC(=O)N1CC2CCC(C1)N2c1ccc(C#N)cn1)c1cccc2nccnc12` (racemic) [Example 193, 6-(3-(2-(1-(quinoxalin-5-yl)ethoxy)acetyl)-3,8-diazabicyclo[3.2.1]octan-8-yl)nicotinonitrile], less than 10 nM; as for `N#Cc1ccc(N2C3CCC2CN(C(=O)COC(c2ccc(F)c(F)c2)C2CC2)C3)nc1` (racemic) [Example 194, 6-(3-(2-(cyclopropyl(3,4-difluorophenyl)methoxy)acetyl)-3,8-diazabicyclo[3.2.1]octan-8-yl)nicotinonitrile], 100 to 1000 nM.
As for `N#Cc1ccc(N2C3CCC2CN(C(=O)COC(c2cccc4ncnn24)C2CC2)C3)nc1` (racemic) [Example 195, 6-(3-(2-([1,2,4]triazolo[1,5-a]pyridin-5-yl(cyclopropyl)methoxy)acetyl)-3,8-diazabicyclo[3.2.1]octan-8-yl)nicotinonitrile], the figure is 10 to 100 nM; as for `CC(OCC(=O)N1CC2CCC(C1)N2c1ccc(C#N)cn1)c1cccn2ncnc12` (racemic) [Example 196, 6-(3-(2-(1-([1,2,4]triazolo[1,5-a]pyridin-8-yl)ethoxy)acetyl)-3,8-diazabicyclo[3.2.1]octan-8-yl)nicotinonitrile], less than 10 nM.
Regarding `Cc1noc(C)c1C(C)OCC(=O)N1CC2CCC(C1)N2c1ccc(C#N)cn1` (racemic) [Example 197, 6-(3-(2-(1-(3,5-dimethylisoxazol-4-yl)ethoxy)acetyl)-3,8-diazabicyclo[3.2.1]octan-8-yl)nicotinonitrile], the IC50 was less than 10 nM.
`Cc1nn(C)c(C)c1C(C)OCC(=O)N1CC2CCC(C1)N2c1ccc(C#N)cn1` (racemic) [Example 198, 6-(3-(2-(1-(1,3,5-trimethyl-1H-pyrazol-4-yl)ethoxy)acetyl)-3,8-diazabicyclo[3.2.1]octan-8-yl)nicotinonitrile]: the IC50 is 10 to 100 nM.
With `N#Cc1ccc(N2C3CCC2CN(C(=O)COC(c2cccc4ncccc24)C(F)F)C3)nc1` (racemic) [Example 199, 6-(3-(2-(2,2-difluoro-1-(quinolin-5-yl)ethoxy)acetyl)-3,8-diazabicyclo[3.2.1]octan-8-yl)nicotinonitrile] the figure was less than 10 nM; with `N#Cc1ccc(N2C3CCC2CN(C(=O)COC(c2ccc(F)cc2)C(F)F)C3)nc1` (racemic) [Example 200, 6-(3-(2-(2,2-difluoro-1-(4-fluorophenyl)ethoxy)acetyl)-3,8-diazabicyclo[3.2.1]octan-8-yl)nicotinonitrile], 10 to 100 nM.
As for `N#Cc1ccc(N2C3CCC2CN(C(=O)COC(c2ccc(F)c(F)c2)C(F)F)C3)nc1` (racemic) [Example 201, 6-(3-(2-(1-(3,4-difluorophenyl)-2,2-difluoroethoxy)acetyl)-3,8-diazabicyclo[3.2.1]octan-8-yl)nicotinonitrile], the figure is 10 to 100 nM.
With `COc1cncc(C(OCC(=O)N2CC3CCC(C2)N3c2ccc(C#N)cn2)C(F)F)c1` (racemic) [Example 202, 6-(3-(2-(2,2-difluoro-1-(5-methoxypyridin-3-yl)ethoxy)acetyl)-3,8-diazabicyclo[3.2.1]octan-8-yl)nicotinonitrile], the IC50 is less than 10 nM.
With `CC(C)(OCC(=O)N1CC2CCC(C1)N2c1ccc(C#N)cn1)c1cccc2ncnn12` (racemic) [Example 203, 6-(3-(2-((2-([1,2,4]triazolo[1,5-a]pyridin-5-yl)propan-2-yl)oxy)acetyl)-3,8-diazabicyclo[3.2.1]octan-8-yl)nicotinonitrile] the figure was 100 to 1000 nM.
For `CC(C)(OCC(=O)N1CC2CCC(C1)N2c1ccc(C#N)cn1)c1cccc2nccn12` (racemic) [Example 204, 6-(3-(2-((2-(imidazo[1,2-a]pyridin-5-yl)propan-2-yl)oxy)acetyl)-3,8-diazabicyclo[3.2.1]octan-8-yl)nicotinonitrile], the IC50 was in the range of 100 to 1000 nM.
Regarding `CCC(OCC(=O)N1CC2CCC(C1)N2c1ccc(C#N)cn1)c1ccc(F)c(Br)c1` (racemic) [Example 216, 6-(3-(2-(1-(3-bromo-4-fluorophenyl)propoxy)acetyl)-3,8-diazabicyclo[3.2.1]octan-8-yl)nicotinonitrile], the IC50 was less than 10 nM.
With `CCC(OCC(=O)N1CC2CCC(C1)N2c1ccc(C#N)cn1)c1cc(F)cc(Br)c1` (racemic) [Example 218, 6-(3-(2-(1-(3-bromo-5-fluorophenyl)propoxy)acetyl)-3,8-diazabicyclo[3.2.1]octan-8-yl)nicotinonitrile] the figure was less than 10 nM; with `N#Cc1ccc(N2C3CCC2CN(C(=O)COC2(c4ccc(F)c(F)c4)CCOC2)C3)nc1` (racemic) [Example 269, 6-(3-(2-((3-(3,4-difluorophenyl)tetrahydrofuran-3-yl)oxy)acetyl)-3,8-diazabicyclo [3.2.1]octan-8-yl)nicotinonitrile], 100 to 1000 nM; with `CC(OCCC(=O)N1CC2CCC(C1)N2c1ccc(C#N)cn1)c1cccc2ncnn12` (racemic) [Example 308, 6-(3-(3-(1-([1,2,4]triazolo[1,5-a]pyridin-5-yl)ethoxy)propanoyl)-3,8-diazabicyclo[3.2.1]octan-8-yl)nicotinonitrile], less than 10 nM.
With `N#Cc1ccc(N2C3CCC2CN(C(=O)CCOC(c2cccc4ncnn24)C2CC2)C3)nc1` (racemic) [Example 309, 6-(3-(3-([1,2,4]triazolo[1,5-a]pyridin-5-yl(cyclopropyl)methoxy)propanoyl)-3,8-diazabicyclo[3.2.1]octan-8-yl)nicotinonitrile] the figure was less than 10 nM.
On to `CC(OCCC(=O)N1CC2CCC(C1)N2c1ccc(C#N)cn1)c1cccc2ncccc12` (racemic) [Example 311, 6-(3-(3-(1-(quinolin-5-yl)ethoxy)propanoyl)-3,8-diazabicyclo[3.2.1]octan-8-yl)nicotinonitrile], for which the IC50 is less than 10 nM.
With `CC(OCCC(=O)N1CC2CCC(C1)N2c1ccc(C#N)cn1)c1cccc2nccnc12` (racemic) [Example 312, 6-(3-(3-(1-(quinoxalin-5-yl)ethoxy)propanoyl)-3,8-diazabicyclo[3.2.1]octan-8-yl)nicotinonitrile] the figure was less than 10 nM.
Take `COc1cccc(C(CO)CCC(=O)N2CC3CCC(C2)N3c2ccc(C#N)cn2)c1` (racemic) [Example 317, 6-(3-(5-hydroxy-4-(3-methoxyphenyl)pentanoyl)-3,8-diazabicyclo[3.2.1]octan-8-yl)nicotinonitrile]: the IC50 was less than 10 nM.
`CC(NCCC(=O)N1CC2CCC(C1)N2c1ccc(C#N)cn1)c1ccc(F)cc1` (stereo in doubt) [Example 7, 6-(3-(3-(((S)-1-(4-fluorophenyl)ethyl)amino)propanoyl)-3,8-diazabicyclo[3.2.1]octan-8-yl)nicotinonitrile]: the IC50 lay within 1000 to 10000 nM.

For the origin of these results see US12565501B2, “Muscarinic acetylcholine M1 receptor antagonists” (Contineum Therapeutics, Inc., priority 2019, dated 2026).
